Each structure is given as a SMILES string.

In this test the target is T1, POLγ W748S + E1143G (Homo sapiens, UniProt P54098, E1143G/W748S).
T1 sequence (P54098 1-1239 W748S/E1143G): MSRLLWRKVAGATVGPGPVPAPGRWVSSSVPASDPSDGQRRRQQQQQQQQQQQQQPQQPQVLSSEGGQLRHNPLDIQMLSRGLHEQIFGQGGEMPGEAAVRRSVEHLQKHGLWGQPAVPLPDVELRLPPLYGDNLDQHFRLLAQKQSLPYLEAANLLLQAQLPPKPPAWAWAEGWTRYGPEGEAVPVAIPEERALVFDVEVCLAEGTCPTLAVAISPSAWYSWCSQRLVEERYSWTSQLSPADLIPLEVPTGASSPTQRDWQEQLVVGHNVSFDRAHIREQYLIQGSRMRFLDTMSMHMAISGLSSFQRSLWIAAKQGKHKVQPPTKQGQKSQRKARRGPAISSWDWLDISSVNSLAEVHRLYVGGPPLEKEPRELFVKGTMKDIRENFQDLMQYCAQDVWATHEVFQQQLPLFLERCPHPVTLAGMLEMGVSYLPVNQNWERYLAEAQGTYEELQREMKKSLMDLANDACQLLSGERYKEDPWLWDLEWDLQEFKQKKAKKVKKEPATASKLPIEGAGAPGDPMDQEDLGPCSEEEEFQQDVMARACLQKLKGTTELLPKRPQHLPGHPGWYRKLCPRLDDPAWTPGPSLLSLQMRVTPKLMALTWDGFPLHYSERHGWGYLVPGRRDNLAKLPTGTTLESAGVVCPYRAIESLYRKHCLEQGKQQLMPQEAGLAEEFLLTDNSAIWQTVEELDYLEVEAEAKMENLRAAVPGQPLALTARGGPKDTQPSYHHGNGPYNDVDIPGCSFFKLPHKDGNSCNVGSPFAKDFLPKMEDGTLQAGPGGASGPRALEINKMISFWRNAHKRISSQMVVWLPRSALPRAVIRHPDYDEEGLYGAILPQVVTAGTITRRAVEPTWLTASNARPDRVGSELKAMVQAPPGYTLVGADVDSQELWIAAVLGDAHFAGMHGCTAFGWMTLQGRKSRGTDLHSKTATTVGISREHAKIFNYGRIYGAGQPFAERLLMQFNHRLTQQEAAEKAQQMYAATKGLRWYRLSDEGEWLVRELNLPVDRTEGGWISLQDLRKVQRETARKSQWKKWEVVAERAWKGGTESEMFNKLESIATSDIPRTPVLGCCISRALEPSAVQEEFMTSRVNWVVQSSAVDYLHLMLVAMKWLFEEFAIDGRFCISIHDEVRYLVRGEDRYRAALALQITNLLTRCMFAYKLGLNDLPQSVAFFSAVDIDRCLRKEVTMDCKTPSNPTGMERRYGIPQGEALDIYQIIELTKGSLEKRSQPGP
T1 sequence (Q9UHN1 1-485 partner): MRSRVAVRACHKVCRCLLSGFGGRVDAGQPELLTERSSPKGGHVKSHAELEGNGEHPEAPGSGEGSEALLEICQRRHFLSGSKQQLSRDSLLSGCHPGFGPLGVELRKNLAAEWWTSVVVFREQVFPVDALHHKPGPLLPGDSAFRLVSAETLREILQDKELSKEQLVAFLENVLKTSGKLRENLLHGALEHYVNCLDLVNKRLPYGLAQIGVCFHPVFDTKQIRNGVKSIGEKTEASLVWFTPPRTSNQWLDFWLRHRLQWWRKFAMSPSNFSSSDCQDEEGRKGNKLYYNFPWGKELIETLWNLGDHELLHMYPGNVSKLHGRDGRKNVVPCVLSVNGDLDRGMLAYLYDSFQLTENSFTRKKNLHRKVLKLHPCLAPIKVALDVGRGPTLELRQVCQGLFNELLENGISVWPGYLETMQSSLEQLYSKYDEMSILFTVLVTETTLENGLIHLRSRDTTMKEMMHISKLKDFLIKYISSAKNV
Kind of test: DNA polymerization assay, W748S + E1143G mutant. It is filed as biochemical. The settings on record: stimulation of polymerase activity, primed M13mp18 ssDNA, 37° C. 2 hours. As for the experimental part: DNA Polymerization Assay to Monitor Effects on Human Wildtype POLγ and Four Disease-Causing Mutant Variants of Human POLγ.
The ability of small molecules to stimulate the polymerase activity of POLγ was analyzed in a quantitative fluorescence SYBR Green I assay with fluorescence intensity (FI) readout.
In the presence of dNTPs, wild type human POLγ and mutant derivatives thereof were incubated with single-stranded, circular M13mp18 ssDNA hybridized to a short DNA oligonucleotide that functions as a primer for initiation of DNA synthesis. POLγ and mutant derivatives thereof will extend the primer and use the M13mp18 molecule as a template to synthesize long stretches of double-stranded DNA. SYBR Green I, which is a double-stranded DNA-binding dye, was used to quantify formation of double-stranded DNA in the reaction. When bound to double-stranded DNA, SYBR Green I fluorescence increases by up to 100-fold.
The assay was performed in the 384-well plate format. Upon addition of compounds, changes in double-stranded DNA synthesis activity can be monitored by following effects on fluorescent intensity.
The reactions also contained the accessory POLγB subunit, and the human mitochondrial single-stranded DNA binding protein (mtSSB).
The DNA template mixture used in the assay contained 0.5 nM primed M13 mp18 ssDNA, 400 nM mtSSB, 0.1 mM Tris-HCl (pH 8.0), 0.1 mM dNTP, 10 mM MgCl2, 0.1 mg/mL BSA, 1 mM TCEP solution, and 0.02% Triton X-100. The DNA template mixture for the wild type protein contained either 100 μM dNTP, 1 μM dNTP, or 0.1 μM dNTP, designated in Table 2 as 100 μM, 1 μM, and 0.1 μM, respectfully.
Microplates with compounds (0.1 μL in each well) to be tested in the assay were prepared from 10 mM compound stocks in 100% DMSO, and equal amounts of DMSO without any compound were added to positive and negative control wells.
The protein mixture was dispensed (5 μL into each well) into compound plates and incubated at 37° C. for 15 minutes. After incubation, 5 μL of the DNA template mixture was dispensed into each well. The plates were then incubated at 37° C. for 2 hours.
During incubation, a combined stop buffer and detection reagent solution was prepared. The buffer contained 25 mM EDTA (pH 8.0), 0.02% Triton X-100, and SYBR Green I [Invitrogen] diluted 10,000× (for fluorescent readout). EDTA will stop the enzymatic reaction by chelating magnesium ions.
By AC50 is commonly meant the concentration giving half of the maximal activity seen. Regarding `Cc1csc(-c2cccc(NS(=O)(=O)c3cc(C)c(Cl)cc3C)c2)n1` [Example 20, 4-chloro-2,5-dimethyl-N-(3-(4-methylthiazol-2-yl)phenyl)benzenesulfonamide], the half-maximal activity concentration (AC50) was 2 µM.

Turning to `Cc1cnc(-c2cccc(NS(=O)(=O)c3cc(C)c(Cl)cc3C)c2)s1` [Example 21, 4-chloro-2,5-dimethyl-N-(3-(5-methylthiazol-2-yl)phenyl)benzenesulfonamide], the half-maximal activity concentration (AC50) was determined as 3 µM.

In the case of `Cc1cc(S(=O)(=O)N(C)c2cccc(-c3nccs3)c2)c(C)cc1Cl` [Example 22, 4-chloro-N,2,5-trimethyl-N-(3-(thiazol-2-yl)phenyl)benzenesulfonamide], the concentration at half-maximal activity (AC50) is above 100 µM.

As to `Cc1cc(S(=O)(=O)Nc2cccc(C(=O)N[C@H](C)c3ccccc3)c2)c(C)cc1Cl` [Example 48, (R)-3-((4-chloro-2,5-dimethylphenyl)sulfonamido)-N-(1-phenylethyl)benzamide], the AC50 was 9 µM.

In the case of `Cc1cc(S(=O)(=O)Nc2cc(-c3nccs3)ccc2F)c(C)cc1Cl` [Example 61, 4-chloro-N-(2-fluoro-5-(thiazol-2-yl)phenyl)-2,5-dimethylbenzenesulfonamide], the half-maximal activity concentration (AC50) turned out to be 0.7 µM.

Consider `Cc1cc(S(=O)(=O)Nc2cc(F)cc(-c3nccs3)c2)c(C)cc1Cl` [Example 62, 4-chloro-N-(3-fluoro-5-(thiazol-2-yl)phenyl)-2,5-dimethylbenzenesulfonamide], for which the AC50 was above 100 µM.

For `Cc1cc(S(=O)(=O)Nc2ccc(F)c(-c3nccs3)c2)c(C)cc1Cl` [Example 63, 4-chloro-N-(4-fluoro-3-(thiazol-2-yl)phenyl)-2,5-dimethylbenzenesulfonamide], the AC50 is above 100 µM.

Turning to `Cc1cc(S(=O)(=O)Nc2cccc(-c3cc(C4CC4)[nH]n3)c2)c(C)cc1Cl` [Example 64, 4-chloro-N-(3-(5-cyclopropyl-1H-pyrazol-3-yl)phenyl)-2,5-dimethylbenzenesulfonamide], the AC50 came out at 4 µM.

With `CC[C@@H]1CCCN1C(=O)c1cccc(NS(=O)(=O)c2cc(C)c(Cl)cc2C)c1` [Example 65, (R)-4-chloro-N-(3-(2-ethylpyrrolidine-1-carbonyl)phenyl)-2,5-dimethylbenzenesulfonamide], the AC50 was 7 µM.

Take `Cc1cc(-c2cccc(NS(=O)(=O)c3cc(C)c(Cl)cc3C)c2)n[nH]1` [Example 66, 4-chloro-2,5-dimethyl-N-(3-(5-methyl-1H-pyrazol-3-yl)phenyl)benzenesulfonamide]: the AC50 came out at 5 µM.

`Cc1cc(S(=O)(=O)Nc2cccc(C(=O)N3CCC[C@H]3C(C)C)c2)c(C)cc1Cl` [Example 67, (S)-4-chloro-N-(3-(2-isopropylpyrrolidine-1-carbonyl)phenyl)-2,5-dimethylbenzenesulfonamide]: the AC50 was determined as 21 µM.

Take `Cc1cc(S(=O)(=O)Nc2cccc(-c3cc[nH]n3)c2)c(C)cc1Cl` [Example 68, N-(3-(1H-pyrazol-3-yl)phenyl)-4-chloro-2,5-dimethylbenzenesulfonamide]: the concentration at half-maximal activity (AC50) came to 2 µM.

With `Cc1cc(S(=O)(=O)Nc2csc(C(=O)N3CCCC3)n2)c(C)cc1Cl` [Example 166, 4-chloro-2,5-dimethyl-N-(2-(pyrrolidine-1-carbonyl)thiazol-4-yl)benzenesulfonamide], the AC50 was 0.4 µM.

`Cc1cc(S(=O)(=O)Nc2csc(C3CCOCC3)n2)c(C)cc1Cl` [Example 167, 4-chloro-2,5-dimethyl-N-(2-(tetrahydro-2H-pyran-4-yl)thiazol-4-yl)benzenesulfonamide]: the half-maximal activity concentration (AC50) turned out to be 2 µM.

For `Cc1cc(S(=O)(=O)Nc2cn(Cc3ccccc3)cn2)c(C)cc1Cl` [Example 168, N-(1-benzyl-1H-imidazol-4-yl)-4-chloro-2,5-dimethylbenzenesulfonamide], the AC50 was above 100 µM.

Consider `Cc1cc(S(=O)(=O)Nc2cn(-c3ccccc3)cn2)c(C)cc1Cl` [Example 169, 4-chloro-2,5-dimethyl-N-(1-phenyl-1H-imidazol-4-yl)benzenesulfonamide], for which the half-maximal activity concentration (AC50) was above 100 µM.

As for `Cc1cc(S(=O)(=O)Nc2cn(C)c(-c3ccccc3)n2)c(C)cc1Cl` [Example 170, 4-chloro-2,5-dimethyl-N-(1-methyl-2-phenyl-1H-imidazol-4-yl)benzenesulfonamide], the AC50 is above 10 µM.

For `Cc1cc(S(=O)(=O)Nc2cnn(-c3ccccc3)n2)c(C)cc1Cl` [Example 171, 4-chloro-2,5-dimethyl-N-(2-phenyl-2H-1,2,3-triazol-4-yl)benzenesulfonamide], the AC50 was above 10 µM.

`Cc1cc(S(=O)(=O)Nc2csc(C(=O)N(C)CC(N)=O)n2)c(C)cc1Cl` [Example 172, N-(2-amino-2-oxoethyl)-4-((4-chloro-2,5-dimethylphenyl)sulfonamido)-N-methylthiazole-2-carboxamide]: the AC50 was above 100 µM.

Consider `Cc1cc(S(=O)(=O)Nc2csc(-c3ccccn3)n2)c(C)cc1Cl` [Example 173, 4-chloro-2,5-dimethyl-N-(2-(pyridin-2-yl)thiazol-4-yl)benzenesulfonamide], for which the half-maximal activity concentration (AC50) was 0.4 µM.

Consider `Cc1cc(S(=O)(=O)Nc2csc(C(=O)N3CCC[C@H]3C)n2)c(C)cc1Cl` [Example 174, (R)-4-chloro-2,5-dimethyl-N-(2-(2-methylpyrrolidine-1-carbonyl)thiazol-4-yl)benzenesulfonamide], for which the AC50 was determined as 0.7 µM.

As to `Cc1cc(S(=O)(=O)Nc2csc(-c3ccncc3)n2)c(C)cc1Cl` [Example 176, 4-chloro-2,5-dimethyl-N-(2-(pyridin-4-yl)thiazol-4-yl)benzenesulfonamide], the AC50 worked out at 0.3 µM.

Turning to `Cc1cc(S(=O)(=O)Nc2csc(C(=O)N(CC(N)=O)C3CCCC3)n2)c(C)cc1Cl` [Example 177, N-(2-amino-2-oxoethyl)-4-((4-chloro-2,5-dimethylphenyl)sulfonamido)-N-cyclopentylthiazole-2-carboxamide], the AC50 is above 100 µM.

For the origin of these results see patent US20260138961A1, “MODULATORS OF MITOCHONDRIAL DNA REPLICATION” (Pretzel Therapeutics, Inc., priority 2022, published 2026).
